The values that follow come from ChEMBL document CHEMBL3507680, “University of Dundee, Gates Library screen for HepG2 cell viability”.

Each structure is given as a SMILES string.

The data set can be described thus: Human HepG2 cell viability assay in 384 well format. Type of data set: toxicity, cell-based. Also noted: dose 125 nL, time 70.5 hour; cytotoxicity at 70.5 h: concentration not given beside the values. Particulars: HepG2 cells, read-out: Inhibition.
For `CC(C)N(C)Cc1nnc2n1CCCN(c1cnccn1)C2`, the cytotoxicity at 70.5 h is -4.42%.
For `O=C([C@H]1CC[C@@H]2[C@@H](CCN2c2ncccn2)O1)N1CCCCO1` the value was -1.66%; for `O=C(Cc1cccs1)N1Cc2nc(CN3CCCC3)oc2C1`, 13%.
As to `O=C(Cc1cccs1)N1Cc2nc(COCC3CC3)oc2C1`, the cytotoxicity at 70.5 h worked out at 0.985%.
Turning to `NC(=O)N1CCc2ncc(CNC(=O)CC3CC3)n2CC1`, the cytotoxicity at 70.5 h worked out at 1.82%.
For `CC(C)n1nc(CN2CCCC2=O)c2c1CN(C(=O)c1ccco1)C2`, the cytotoxicity at 70.5 h is -5.68%.
For `Cn1ncc2c1C(COCC1CC1)CN(c1ncc(F)cn1)C2` (centres undefined) the value was -4.28%; for `Cc1nc(Cn2c3c(ccc2=O)CC(NC(N)=O)CC3)cs1` (centres undefined), 5.59%.
With `CCN1CCOCC2(C1)CN(C(=O)c1c(C)noc1C)CCO2` (centres undefined) the figure was -3.94%; with `CS(=O)(=O)N1CCO[C@@H]2CN(C(=O)c3ccnnc3)C[C@@H]2C1`, -2.42%.
For `CS(=O)(=O)N1C[C@H]2CN(CC3CC3)C(=O)[C@H]2C1` the value was -2.81%.
For the molecule `CCOC1COC2(CCN(c3ncc(C)cn3)CC2)C1` (centres undefined), the cytotoxicity at 70.5 h was -2.14%.
For `CS(=O)(=O)N1CCO[C@@H]2CN(C(=O)c3cccnc3)C[C@@H]2C1` the value was -2.16%; for `CC(=O)N1CCOC2(CCN(C(=O)c3cnoc3C)CC2)C1`, 2.68%; for `Cn1cc(CN2C[C@@H]3[C@@H](C2)OCC(=O)N3Cc2ccncc2)cn1`, -6.23%.
For `O=C(C1CCC1)N1CCn2c(COc3ncccn3)nnc2C1` the value was 1.54%; for `Cc1nc([C@@H]2C[C@@H]3CCN(C(=O)Cc4ccsc4)C[C@H]3O2)no1`, -13.8%; for `COc1ncccc1C(=O)N1CCn2c(COCC3CC3)cnc2C1C` (centres undefined), -0.554%.
With `O=C(NCCO)c1ccn(-c2ccc3ccccn23)n1`, the cytotoxicity at 70.5 h is 25.4%.
For `CC(C)c1nccc([C@H]2C[C@@H]3CCN(Cc4ccco4)C[C@H]3O2)n1` the value was -9.27%; for `COC[C@@H]1CC[C@H]2[C@H](CCN2S(=O)(=O)c2cccc(C)c2)O1`, -11.1%.
For `CC(C)CNC(=O)c1ccc2nnc(C3CCN(S(C)(=O)=O)C3)n2c1` (centres undefined) the value was -19.7%; for `O=c1cc(Cn2cncn2)nc2n1CCCN(CC1CC1)C2`, -33%.
With `Cc1ccc(CN2CCCn3c(nc(Cn4cncn4)cc3=O)C2)s1` the figure was -19.3%; with `CS(=O)(=O)N1CCC2(CC1)CC(CC(=O)NC1CC1)c1ccccc12` (centres undefined), -20.3%.
On to `Fc1cccc(CN2CCO[C@H]3[C@@H](OCc4ccccn4)CC[C@@H]32)c1`, for which the cytotoxicity at 70.5 h was -15.5%.
With `Cn1cc(CNCC2Cn3nnc(-c4ccccc4)c3CO2)cn1` (centres undefined) the figure was -16.3%; with `Cn1cc(CN2CCC3(CCCN3S(C)(=O)=O)CC2)cn1`, 12.4%; with `Cc1ccsc1C(=O)N1Cc2ccccc2C2(CCN(C)CC2)C1`, -6.4%.
In the case of `CCO[C@H]1CO[C@@]2(CCCN(S(=O)(=O)c3ccccc3)C2)C1`, the cytotoxicity at 70.5 h was found to be 1.01%.
In the case of `OCCNc1cc(-c2ccccc2)ncn1`, the cytotoxicity at 70.5 h is -1.96%.
With `OCCNc1cc(-c2ccncc2)ncn1` the figure was 0.654%.
With `C[C@H](O)CNc1cc(-c2ccccc2)ncn1` the figure was -0.249%; with `Cc1ncncc1-c1ccnc(NC(C)C)n1`, -2.82%; with `C[C@H](O)CNc1cc(-c2ccncc2)ncn1`, -0.809%.
With `Cc1ccc2c(c1)[C@@H](CC(=O)N(C)C)CCO2` the figure was -2.63%; with `COc1cc(-c2cc(N)ncn2)cc(OC)c1OC`, -6.28%.
Take `COc1cc(-c2cc(OC)c(OC)c(OC)c2)ncn1`: the cytotoxicity at 70.5 h is -6.68%.
For `COCC(=O)NCC[C@H]1CC(C)(C)Oc2ccccc21` the value was -3.02%.
For `CN(C)c1nccc(NCc2cc(-c3ccco3)n[nH]2)n1` the value was -3.1%; for `CN1CC(=O)c2sc(NCCc3ccccc3)nc2C1`, 30%; for `Cc1ccc2c(c1)[C@@H](CC(=O)N1CCN(C)CC1)CCO2`, 3.15%.
For `CNCC[C@H]1CC(C)(C)Oc2ccc(OCC3CC3)cc21` the value was 7.09%; for `O=c1[nH][nH]cc1-c1ccnc(NCCc2ccc(F)cc2)n1`, -6.1%; for `CNCC(=O)Nc1cccc(-c2cnc(NCCO)nc2)c1`, -1.04%.
On to `COCCCNc1nc(CNC(C)=O)cc(-c2ccco2)n1`, for which the cytotoxicity at 70.5 h is -8.32%.
For `CC1(C)C[C@H](CCNC(=O)c2ccncc2)c2ccccc2O1` the value was -10%; for `Cc1[nH]c2ccccc2c1-c1ccnc(N[C@@H](CO)C(C)C)n1`, -3.22%; for `CNc1ncc(-c2ccc(NC(=O)[C@@H]3CCCCN3)cc2)cn1`, -1.05%.
For `Cc1noc(C)c1CN1CCO[C@H]2CNC[C@H]21` the value was -6.78%.
Turning to `CS(=O)(=O)NC[C@H]1OC[C@H]2CN(CCc3ccccc3)CC[C@H]21`, the cytotoxicity at 70.5 h is -0.811%.
For `CC(C)CN1C[C@H]2C[C@H](C(=O)N3CCCC3)[C@@H](C1)O2` the value was -2.66%; for `O=S(=O)(C1CC1)N1CCOC2(CCCN(Cc3ccccn3)C2)C1` (centres undefined), -5.41%.
Take `Cc1cnc(N2CCCn3c(nnc3CN(C)C(C)C)C2)nc1`: the cytotoxicity at 70.5 h is -1.83%.
For `O=C1N(CC2CC2)CCC12CCCN(c1ncc(F)cn1)C2` (centres undefined) the value was -3.11%; for `Cc1ccc(N2CC[C@H]3O[C@H](C(=O)N4CCCCO4)CC[C@H]32)nn1`, -3.7%; for `c1csc(CN2C[C@H](OCC3CCOCC3)[C@H]3COC[C@H]32)n1`, 14.6%.
Take `c1cc(CN2C[C@H](OCC3CCOCC3)[C@H]3COC[C@H]32)co1`: the cytotoxicity at 70.5 h was found to be 12.4%.
With `CN(C)[C@@H]1CN(C(=O)Cc2ccccc2)[C@@H]2CCCO[C@H]12` the figure was 15.5%; with `CN(C)C(=O)CO[C@H]1CN(Cc2nccs2)[C@@H]2COC[C@H]12`, -9.59%; with `CN(C)[C@@H]1CN(C(=O)Cc2cccs2)[C@@H]2CCCO[C@H]12`, -5.81%.
For the molecule `COCCN1CCc2ncnc(NC(C)C)c2CC1`, the cytotoxicity at 70.5 h is -5.11%.
With `Cc1cnc(N2CC[C@H]3[C@@H]2CCC(=O)N3c2ccccc2)nc1` the figure was 5.23%; with `Fc1cnc(N2CCO[C@H]3[C@H](OCCN4CCCC4)CC[C@@H]32)nc1`, -8.48%; with `CC(C)CCN1C[C@H]2C[C@H](C(=O)NCC(C)C)[C@@H](C1)O2`, -2.84%.
With `Cn1cc(-c2ncc3c(c2C(=O)O)CCN(Cc2ccco2)C3)cn1` the figure was -5.93%; with `CN(C)C(=O)CO[C@H]1CN(Cc2ccsc2)[C@@H]2COC[C@H]12`, -1.85%; with `O=C(c1cscn1)N1CC[C@@H]2[C@@H]1CCN2CC1CCOC1` (some centres undefined), -1.02%.
With `O=C(c1cscn1)N1CC[C@@H]2[C@@H]1CCN2C1CCOCC1` the figure was -3.43%; with `COCCNC(=O)[C@@]12CCO[C@@H]1CCN(Cc1c(C)noc1C)C2`, -5.87%; with `Cn1cc(CN2CCC3(CC(=O)N(c4ccc5c(c4)OCO5)C3)C2)cn1` (centres undefined), -9.01%.
As to `O=C(c1ccco1)N1C[C@H]2CCCN(Cc3cccs3)[C@H]2C1`, the cytotoxicity at 70.5 h turned out to be 7.1%.
Take `Cc1cnc(C(=O)N2C[C@@H]3CN(CC4CCCC4)CCO[C@@H]3C2)cn1`: the cytotoxicity at 70.5 h was found to be 25.7%.
With `CN(C)C(=O)N1C[C@H]2CCC[C@@]2(COc2ccccn2)C1` the figure was -8.44%; with `c1cnc(N2CCC3(CCN(CC4CCOC4)C3)CC2)nc1` (centres undefined), -17.9%.
For `Cc1noc(C)c1C(=O)N1C[C@H]2CCC[C@@]2(COc2ccccn2)C1` the value was -11.3%.
Consider `COc1ccc(CC(=O)N2C[C@@H]3COC[C@]3(CN(C)C)C2)cc1`, for which the cytotoxicity at 70.5 h was -17.9%.
With `O=C(Nc1cccnc1)[C@H]1C[C@H]2OCC[C@H]2N(C(=O)c2ccsc2)C1` the figure was -15.4%; with `Cc1oncc1C(=O)NCc1cc(=O)n2c(n1)CN(C)CCC2`, -14.9%; with `CCC(CC)C(=O)N1CCC2(C1)CN(c1ccccc1)C(=O)CN2C` (centres undefined), -20.2%.
With `O=C(c1ccncc1)N1CCCC2(COCCN(c3ccccc3)C2)C1` (centres undefined), the cytotoxicity at 70.5 h is -16.1%.
With `c1cncc(COCC2CC[C@H]3[C@H]2OCCN3Cc2ccoc2)c1` (some centres undefined) the figure was 11.3%; with `Cc1ccc(CN2CCO[C@H]3[C@@H](OCc4cccnc4)CC[C@@H]32)o1`, -14.9%.
As to `CCn1ncc2c1C(COC)CN(c1ncc(F)cn1)C2` (centres undefined), the cytotoxicity at 70.5 h was -9.93%.
Take `Cn1nc(COCC2CC2)c2c1CN(CC1CC1)CC2`: the cytotoxicity at 70.5 h is -0.347%.
In the case of `O=C(C1CC1)N1Cc2[nH]nc(COCc3cccnc3)c2C1`, the cytotoxicity at 70.5 h is -0.809%.
As for `CN(C)c1ncc2c(c1C(=O)O)CCN(Cc1ccco1)C2`, the cytotoxicity at 70.5 h is -4.04%.
For `CN(C)C(=O)c1n[nH]c2c1CN(CC1CCC1)C2` the value was -1.39%; for `CN(C)C(=O)c1n[nH]c2c1CN(CC1CCCCC1)C2`, -2.71%; for `CN(C)[C@@H]1CN(Cc2ccco2)C[C@@H]2CCCO[C@@H]21`, -8.79%.
With `COCC1CC2(CCN(Cc3cnn(C)c3)CC2)CN1C(C)C` (centres undefined) the figure was -15.8%; with `COc1ccc(CN2CCC3(CC2)NC(=O)CC3c2ccncc2)cc1` (centres undefined), -7.29%; with `c1cnc(N2CCC3(CCN(CC4CC4)CC3)CC2)nc1`, -15.1%.
For `Cc1noc(C)c1CN1CCO[C@H]2CN(CC3CC3)C[C@H]21` the value was -28.9%.
